For experiment [1], the target named is T1, SIRT1 (Homo sapiens, UniProt Q96EB6).
T1 sequence (Q96EB6 1-747): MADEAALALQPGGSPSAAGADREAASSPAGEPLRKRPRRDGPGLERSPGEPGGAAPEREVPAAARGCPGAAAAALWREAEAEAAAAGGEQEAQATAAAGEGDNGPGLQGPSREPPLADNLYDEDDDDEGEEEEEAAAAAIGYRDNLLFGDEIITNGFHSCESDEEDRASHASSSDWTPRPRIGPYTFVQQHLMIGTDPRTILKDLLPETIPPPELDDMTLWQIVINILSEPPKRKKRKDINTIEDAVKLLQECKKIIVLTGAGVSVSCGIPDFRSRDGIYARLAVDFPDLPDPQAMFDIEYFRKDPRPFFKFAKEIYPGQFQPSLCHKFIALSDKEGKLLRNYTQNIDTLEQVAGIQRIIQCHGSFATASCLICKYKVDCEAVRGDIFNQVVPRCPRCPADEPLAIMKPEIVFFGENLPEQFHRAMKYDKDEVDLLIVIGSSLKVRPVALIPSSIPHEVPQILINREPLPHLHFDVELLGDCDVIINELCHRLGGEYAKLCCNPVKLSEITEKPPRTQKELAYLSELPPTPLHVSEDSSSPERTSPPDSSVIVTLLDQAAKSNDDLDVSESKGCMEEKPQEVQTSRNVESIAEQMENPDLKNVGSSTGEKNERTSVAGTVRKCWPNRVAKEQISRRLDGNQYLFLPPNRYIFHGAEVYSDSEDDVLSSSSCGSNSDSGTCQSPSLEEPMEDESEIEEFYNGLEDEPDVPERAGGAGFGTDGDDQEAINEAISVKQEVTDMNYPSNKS
The experiment in a line: TAMRA based mass spectrometry assay of SIRT1 deacetylase activation. Format: biochemical. The settings on record: TAMRA peptide substrate; for TAMRA EC1.5 (μM): concentration that results in 150% activation of SIRT1; for TAMRA % Fold Act: percent maximum fold activation relative to control (100%). The essentials:
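E. coli-expressed N-terminal His-tagged human SIRT1 (10 nM) was incubated 25 min at 25 °C, pH 8 Tris-acetate buffer, with 0.5 μM TAMRA-labelled p53-derived acetyl-peptide, 120 μM NAD+ and varying compound; formic acid stop, mass-spec quantitation of deacetylated product vs DMSO controls. EC1.5 = concentration giving 150% activation.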

The target of experiment [2] is T1, SIRT1. The experiment in a line: Trp mass spectrometry assay of SIRT1 deacetylase activation. It is filed as biochemical. The settings on record: Trp peptide substrate; for TRP EC1.5 (μM): concentration that results in 150% activation of SIRT1; for TRP % Fold Act: percent maximum fold activation relative to control (100%). The essentials: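 His-tagged human SIRT1 (E. coli-expressed, 10 nM) was incubated with 0.5 μM Ac-RHKK(Ac)W-NH2 peptide and 120 μM βNAD+ for 25 min at 25 °C in HEPES pH 7.5, 1500 mM NaCl, with varying compound; formic acid quench. OAADPR or deacetylated peptide was quantified by mass spectrometry against DMSO control. EC1.5 (150% activation) and percent maximum activation were derived.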

SMILES strings stand for the structures.

In the case of `O=C(Nc1cccc(CN2CCOCC2)n1)c1ccnc2cc(-c3cccc(C(F)(F)F)c3)nn12` [Compound 91], on SIRT1 [1], the “TAMRA EC1.5 (μM)” value is on record as “C (EC1.5>25 μM)” and the “TAMRA % Fold Act” value was “B (Fold Activation<350%)”. Also, at SIRT1 [2], the “TRP EC1.5 (μM)” value is listed as “C (EC1.5>25 μM)” and the “TRP % Fold Act” value is on record as “B (Fold Activation<350%)”.
`Cc1cnc(NC(=O)c2ccnn3cc(-c4cccc(F)c4)nc23)s1` [Compound 5]: on SIRT1 [1], the “TAMRA EC1.5 (μM)” value is reported as “C (EC1.5>25 μM)” and the “TAMRA % Fold Act” value is “B (Fold Activation<350%)”. At SIRT1 [2], the “TRP EC1.5 (μM)” value is “C (EC1.5>25 μM)” and the “TRP % Fold Act” value is “B (Fold Activation<350%)”.
For the compound `O=C(Nc1ccnc2cc(-c3ccccc3C(F)(F)F)nn12)c1cncnc1` [Compound 104], on SIRT1 [1], the “TAMRA EC1.5 (μM)” value is recorded as “C (EC1.5>25 μM)” and the “TAMRA % Fold Act” value is reported as “B (Fold Activation<350%)”. On SIRT1 [2], the “TRP EC1.5 (μM)” value is reported as “C (EC1.5>25 μM)” and the “TRP % Fold Act” value is reported as “B (Fold Activation<350%)”.
With `Cc1cnc(C(=O)Nc2ccnc3cc(-c4ccccc4C(F)(F)F)nn23)cn1` [Compound 108], on SIRT1 [1], the “TAMRA EC1.5 (μM)” value was “A (EC1.5<1 μM)” and the “TAMRA % Fold Act” value is on record as “A (Fold activation≧350%)”. On SIRT1 [2], the “TRP EC1.5 (μM)” value was “C (EC1.5>25 μM)” and the “TRP % Fold Act” value is recorded as “B (Fold Activation<350%)”.
On the same counts, the results for `Cc1csc(NC(=O)c2ccnc3cc(-c4cccc(C(F)(F)F)c4)nn23)n1` [Compound 89] are “C (EC1.5>25 μM)”, “B (Fold Activation<350%)”, “C (EC1.5>25 μM)” and “B (Fold Activation<350%)”.
For `Cc1cnc(NC(=O)c2ccnc3cc(-c4ccccc4C(F)(F)F)nn23)s1` [Compound 80], on SIRT1 [1], the “TAMRA EC1.5 (μM)” value was “B (EC1.5 1−25 μM)” and the “TAMRA % Fold Act” value is recorded as “B (Fold Activation<350%)”. For the same compound, at SIRT1 [2], the “TRP EC1.5 (μM)” value is listed as “C (EC1.5>25 μM)” and the “TRP % Fold Act” value was “B (Fold Activation<350%)”.
`Cn1cnc(C(=O)Nc2ccnc3cc(-c4cccc(C(F)(F)F)c4)nn23)c1` [Compound 96]: at SIRT1 [1], the “TAMRA EC1.5 (μM)” value was “B (EC1.5 1−25 μM)” and the “TAMRA % Fold Act” value is recorded as “B (Fold Activation<350%)”. Also, on SIRT1 [2], the “TRP EC1.5 (μM)” value is “C (EC1.5>25 μM)” and the “TRP % Fold Act” value is listed as “B (Fold Activation<350%)”.
On to `O=C(Nc1ccncc1)c1cc(N2CCOCC2)nn2cc(-c3cccc(Cl)c3)nc12` [Compound 54], for which, at SIRT1 [1], the “TAMRA EC1.5 (μM)” value is listed as “C (EC1.5>25 μM)” and the “TAMRA % Fold Act” value was “B (Fold Activation<350%)”. Moreover, at SIRT1 [2], the “TRP EC1.5 (μM)” value is given as “C (EC1.5>25 μM)” and the “TRP % Fold Act” value is reported as “B (Fold Activation<350%)”.
As for `O=C(Nc1ccnc2cc(-c3ccccc3C(F)(F)F)nn12)c1ncccn1` [Compound 60], on SIRT1 [1], the “TAMRA EC1.5 (μM)” value is “A (EC1.5<1 μM)” and the “TAMRA % Fold Act” value is “A (Fold activation≧350%)”. In addition, at SIRT1 [2], the “TRP EC1.5 (μM)” value was “B (EC1.5 1−25 μM)” and the “TRP % Fold Act” value is listed as “B (Fold Activation<350%)”.
On the same counts, the results for `O=C(Nc1cccnc1)c1cc(N2CCOCC2)nn2cc(-c3cccc(Cl)c3)nc12` [Compound 33] are “C (EC1.5>25 μM)”, “B (Fold Activation<350%)”, “C (EC1.5>25 μM)” and “B (Fold Activation<350%)”.
`Cc1cnc(NC(=O)c2cc(N3CCOCC3)nn3cc(-c4ccccc4C(F)(F)F)nc23)s1` [Compound 43]: at SIRT1 [1], the “TAMRA EC1.5 (μM)” value is “A (EC1.5<1 μM)” and the “TAMRA % Fold Act” value is on record as “B (Fold Activation<350%)”. Besides, at SIRT1 [2], the “TRP EC1.5 (μM)” value is given as “C (EC1.5>25 μM)” and the “TRP % Fold Act” value is recorded as “B (Fold Activation<350%)”.
For `Cc1ccnc(C(=O)Nc2ccnc3cc(-c4ccccc4C(F)(F)F)nn23)c1` [Compound 105], on SIRT1 [1], the “TAMRA EC1.5 (μM)” value was “A (EC1.5<1 μM)” and the “TAMRA % Fold Act” value is “A (Fold activation≧350%)”. Also, at SIRT1 [2], the “TRP EC1.5 (μM)” value was “C (EC1.5>25 μM)” and the “TRP % Fold Act” value was “B (Fold Activation<350%)”.
On to `O=C(Nc1ccnc2cc(-c3ccccc3C(F)(F)F)nn12)c1cscn1` [Compound 55], for which, on SIRT1 [1], the “TAMRA EC1.5 (μM)” value is recorded as “B (EC1.5 1−25 μM)” and the “TAMRA % Fold Act” value is listed as “A (Fold activation≧350%)”. Also, on SIRT1 [2], the “TRP EC1.5 (μM)” value is on record as “C (EC1.5>25 μM)” and the “TRP % Fold Act” value was “B (Fold Activation<350%)”.
In the case of `Cc1cnc(NC(=O)c2ccnn3cc(-c4cccc(C(F)(F)F)c4)nc23)s1` [Compound 18], at SIRT1 [1], the “TAMRA EC1.5 (μM)” value is “C (EC1.5>25 μM)” and the “TAMRA % Fold Act” value was “B (Fold Activation<350%)”. Further, at SIRT1 [2], the “TRP EC1.5 (μM)” value is given as “C (EC1.5>25 μM)” and the “TRP % Fold Act” value is given as “B (Fold Activation<350%)”.
With `O=C(Nc1nccs1)c1ccnn2cc(-c3cccc(C(F)(F)F)c3)nc12` [Compound 17], at SIRT1 [1], the “TAMRA EC1.5 (μM)” value is “C (EC1.5>25 μM)” and the “TAMRA % Fold Act” value is on record as “B (Fold Activation<350%)”. On SIRT1 [2], the “TRP EC1.5 (μM)” value is reported as “C (EC1.5>25 μM)” and the “TRP % Fold Act” value was “B (Fold Activation<350%)”.
`O=C(Nc1ccccn1)c1cc(N2CCOCC2)nn2cc(-c3ccccc3F)nc12` [Compound 39]: on SIRT1 [1], the “TAMRA EC1.5 (μM)” value was “C (EC1.5>25 μM)” and the “TAMRA % Fold Act” value is recorded as “B (Fold Activation<350%)”. On SIRT1 [2], the “TRP EC1.5 (μM)” value was “C (EC1.5>25 μM)” and the “TRP % Fold Act” value was “B (Fold Activation<350%)”.

Source of the values: patent publication US20140288052A1, “SUBSTITUTED BICYCLIC AZA-HETEROCYCLES AND ANALOGUES AS SIRTUIN MODULATORS” (GlaxoSmithKline, LLC, priority 2011, published 2014).
